Measurements as given in patent US20240284907A1, “NOVEL DERIVATIVES OF NON-CODED AMINO ACIDS AND THEIR USE AS HERBICIDES” (FortePhest LTD., priority 2021, published 2024).

System: Seeds of Lettuce R. (Super-Jericho)
Assay: Filter paper bioassay with lettuce seeds: germination, Fully Effective Concentration (FEC)
Assay type: in vivo
Settings: lowest concentration mostly preventing lettuce seed germination, assessed after 6 days
From the text: Materials: Seeds of Lettuce R. (Super-Jericho, non-sterilized) were obtained from Ben Shahar Moshe Ltd., 99% purity. The test compounds listed in the Table 2 below were synthetized de novo or purchased from different vendors.
Filter Paper Bioassays with Lettuce seeds: The protocol is following Bertin et al. 2009 and Movellan et al. 2014 with specified modifications as described below.
Seeds were placed on Whatman no. 1 filter paper (Whatman, Middlesex, U.K.) in Petri dishes (10 seeds per plate) with 2.0 ml of aqueous solution of a test material in concentration ranged from 0 (control) to 1 mmol/l were placed in a tray tilted at 45°. The trays were kept in dark for 48 hours and then transferred to the growth chamber with 6/18 dark/light cycle for 4 days. Each experiment was performed at least with two repeats.
The development of plants' radicle and shoots were visually assessed 6 days after the beginning of the test to determine Fully Effective Concentration (FEC) of a test material. In the context of the invention, FED is defined as the lowest concentration level of a test material that mostly preventing seeds germination.

“2-(2-chlorothiophen-3-yl)-2,2-difluoroacetic acid [compound 5623]” and “ethyl(2,5-dichloro-1,3-thiazol-4-yl)(difluoro)acetate [compound 5655]” are the same in “FEC (Fully Effective Concentration)” value: 1.000 mM for the first, 1.000 mM for the second.

System: Romaine lettuce (Lactuca sativa L.) plants
Assay: Comparison of NAA and DNAA: growth inhibition of potted Romaine lettuce plants
Assay type: in vivo
Settings: foliar application, 0.05 mg/pot, two weeks after treatment
Experimental: The tests were performed on Romaine lettuce (Lactuca sativa L.) plants at the stage 2 to 3 leaves. The plants were grown in mini-pots packed with soil, dimensions 2×2×5 cm, one plant per mini-pot. Test compounds were dissolved in 0.1% aqueous solution water solution of Silwet adjuvant. The test material where applied in rate 0 (Control), 0.01, 0.05, and 0.5 mg/pot. The test compounds were applied on soil or foliar with airbrush (0.1 ml per pot). Each concentration was tested on 20 plants. Two weeks after the treatment the herbicidal effects of the respective test material were visually evaluated (aboveground part and roots. Then the aboveground part of the plants was neatly cut and weighed (wet weight) to assess the growth inhibition caused by the test compound. The growth inhibition (GI) was calculated as following: […]
Where Mt and Mc are median wet weight of treated and control plants, respectively.

Compared with `NC(Cc1ccsc1Cl)C(=O)O` (stereo not drawn) [compound 516], “2-(2-chlorothiophen-3-yl)-2,2-difluoroacetic acid [compound 5623]” is higher in “Herbicidal effect, growth application (%)” value (“Herbicidal effect … (%)” below): 0% for the first, 91% for the second.

`NC(Cc1cc(Cl)sc1Cl)C(=O)O` (stereo not drawn) [compound 517] and `NC(Cc1ccnc(Br)c1)C(=O)O` (stereo not drawn) [compound 632] are the same in “Herbicidal effect … (%)” value: 0% for the first, 0% for the second.

For `NC(Cc1nc(Cl)sc1Cl)C(=O)O` (stereo not drawn) [compound 527], the “Herbicidal effect … (%)” value was 0%.

Same assay, conditions: foliar application, 0.50 mg/pot, two weeks after treatment

Going from `NC(Cc1ccsc1Cl)C(=O)O` (stereo not drawn) [compound 516] to “2-(2-chlorothiophen-3-yl)-2,2-difluoroacetic acid [compound 5623]”, the “Herbicidal effect … (%)” value rises from 0% to 97%.

Compared with `NC(Cc1cc(Cl)sc1Cl)C(=O)O` (stereo not drawn) [compound 517], `NC(Cc1ccnc(Br)c1)C(=O)O` (stereo not drawn) [compound 632] is lower in “Herbicidal effect … (%)” value: 29% for the first, 8% for the second.

In the case of `NC(Cc1nc(Cl)sc1Cl)C(=O)O` (stereo not drawn) [compound 527], the “Herbicidal effect … (%)” value is reported as 44%.

Same assay, conditions: soil application, 0.01 mg/pot, two weeks after treatment

Compared with `NC(Cc1ccsc1Cl)C(=O)O` (stereo not drawn) [compound 516], “2-(2-chlorothiophen-3-yl)-2,2-difluoroacetic acid [compound 5623]” is higher in “Herbicidal effect … (%)” value: 0% for the first, 34% for the second.

`NC(Cc1cc(Cl)sc1Cl)C(=O)O` (stereo not drawn) [compound 517] and `NC(Cc1ccnc(Br)c1)C(=O)O` (stereo not drawn) [compound 632] are the same in “Herbicidal effect … (%)” value: 0% for the first, 0% for the second.

For `NC(Cc1nc(Cl)sc1Cl)C(=O)O` (stereo not drawn) [compound 527], the “Herbicidal effect … (%)” value was 0%.

Same assay, conditions: soil application, 0.05 mg/pot, two weeks after treatment

First: NC(Cc1ccsc1Cl)C(=O)O (stereo not drawn) [compound 516]
Second: 2-(2-chlorothiophen-3-yl)-2,2-difluoroacetic acid [compound 5623]
The “Herbicidal effect … (%)” value of the first is lower: 0% for the first, 79% for the second.

First: NC(Cc1cc(Cl)sc1Cl)C(=O)O (stereo not drawn) [compound 517]
Second: NC(Cc1ccnc(Br)c1)C(=O)O (stereo not drawn) [compound 632]
The “Herbicidal effect … (%)” value of the first is higher: 25% for the first, 13% for the second.

In the case of `NC(Cc1nc(Cl)sc1Cl)C(=O)O` (stereo not drawn) [compound 527], the “Herbicidal effect … (%)” value is reported as 11%.

Same assay, conditions: soil application, 0.50 mg/pot, two weeks after treatment

Compared with `NC(Cc1ccsc1Cl)C(=O)O` (stereo not drawn) [compound 516], “2-(2-chlorothiophen-3-yl)-2,2-difluoroacetic acid [compound 5623]” is higher in “Herbicidal effect … (%)” value: 38% for the first, 98% for the second.

First: NC(Cc1cc(Cl)sc1Cl)C(=O)O (stereo not drawn) [compound 517]
Second: NC(Cc1ccnc(Br)c1)C(=O)O (stereo not drawn) [compound 632]
The “Herbicidal effect … (%)” value of the first is higher: 75% for the first, 21% for the second.

With `NC(Cc1nc(Cl)sc1Cl)C(=O)O` (stereo not drawn) [compound 527] the “Herbicidal effect … (%)” value was 90%.

System: Romaine lettuce (Lactuca sativa L.) plants
Assay: Post-emergence herbicidal activity on potted Romaine lettuce plants (soil or foliar application)
Assay type: in vivo
Settings: foliar application, lettuce at 2 to 3 leaves, two weeks after treatment
Experimental: The tests were performed on Romaine lettuce (Lactuca sativa L.) plants at the stage 2 to 3 leaves. The plants were grown in mini-pots packed with soil, dimensions 2×2×5 cm, one plant per mini-pot. Test compounds were dissolved in 0.1% aqueous solution water solution of Silwet adjuvant to final concentrations ranging from 0 (Control) to 0.0001%. The test compounds were applied on soil (1 ml per pot) or foliar with airbrush (0.1 ml per pot). Each concentration was tested on 20 plants. Two weeks after the treatment the herbicidal effects of the respective test material were visually evaluated (aboveground part and roots. Then the aboveground part of the plants was neatly cut and weighed (wet weight) to assess the growth inhibition caused by the test compound. The growth inhibition (GI) was calculated as following: […]
Where Mt and Mc are median wet weight of treated and control plants, respectively. In the context of the invention, the herbicidal effect was assessed by concentration of the compound causing more than 85% of Growth Inhibition (GI) or irreversible damage of the plants (Table 3). Herbicidal activity of selected DHAAs is summarized in Table 4 (soil application) and Table 5 (Foliar application).

With “2-(2-chlorothiophen-3-yl)-2,2-difluoroacetic acid [compound 5623]” the “Score (test material causing more than 85% of Growth Inhibition or irreversible plant damage)” value was “strong (0.01 to 0.05)”.
“ethyl(2,5-dichloro-1,3-thiazol-4-yl)(difluoro)acetate [compound 5655]” was tested, and the “Score (test material causing more than 85% of Growth Inhibition or irreversible plant damage)” value was “strong (0.01 to 0.05)”.

Same assay, conditions: soil application, lettuce at 2 to 3 leaves, two weeks after treatment

“2-(2-chlorothiophen-3-yl)-2,2-difluoroacetic acid [compound 5623]” was tested, and the “Score (test material causing more than 85% of Growth Inhibition or irreversible plant damage)” value was “strong (0.01 to 0.05)”.
“ethyl(2,5-dichloro-1,3-thiazol-4-yl)(difluoro)acetate [compound 5655]” was tested, and the “Score (test material causing more than 85% of Growth Inhibition or irreversible plant damage)” value was “strong (0.01 to 0.05)”.

System: Seeds of Lettuce R. (Super-Jericho)
Assay: Filter paper bioassay with lettuce seeds: germination and early plant development, Minimal Effective Concentration (MEC)
Assay type: in vivo
Settings: lettuce seeds on filter paper, 0 to 1 mmol/l, visually assessed after 6 days
How it was run: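 Visual scoring on day 6 of radicle and shoot growth gives the MEC, the lowest dose deviating from control (no germination or malformation). Seeds (lettuce Super-Jericho, 10 per plate) sat on filter paper with 0–1 mmol/l aqueous compound, 48 h dark then 4 days 6/18 dark/light, in at least two repeats.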

With “2-(2-chlorothiophen-3-yl)-2,2-difluoroacetic acid [compound 5623]” the “Score (activity score of Minimal Effective Concentration, MEC)” value was “Strong (0.01 mM)”.
“ethyl(2,5-dichloro-1,3-thiazol-4-yl)(difluoro)acetate [compound 5655]” was tested, and the “Score (activity score of Minimal Effective Concentration, MEC)” value was “Strong (0.01 mM)”.
